{"source": "patent US20060147456A1", "about": "“Induction of apoptosis in toll-like receptor expressing tumor cells” (priority 2004, published 2006)", "tested_on": "Cama-1 cells", "test": "BrdU incorporation and subdiploid DNA content by FACS", "format": "cell-based, human", "experimental": "Cell recovery after treatment with TLR ligands was measured by crystal violet staining (Sigma-Aldrich). Cells were plated at 10^4 cells/well in 96 well plates. After 72 hours of culture either with or without TLR ligand, the cells were washed with PBS, fixed in 6% formaldehyde (Sigma-Aldrich) for 20 minutes, washed twice, and then stained with 0.1% crystal violet for 10 minutes. After washes and incubation in 1% SDS for 1 hour, the absorbance was read at 605 nm on a Vmax plate reader (Molecular Devices, Sunnyvale, Calif.). Annexin V staining was performed with an annexin-FITC apoptosis detection kit (BD Pharmingen, San Diego, Calif.) according to the manufacturer's instructions. Sub-diploid cells were detected by staining with 3 μg/mL propidium iodide (PI) (Molecular probes, Eugene, Oreg.), after overnight permeabilization in 70% ethanol. Fluorescence was analyzed by flow cytometry on a FACScalibur (Becton Dickinson, Mountain View, Calif.) equipped with a doublet-discrimination module and using Celiquest Pro software (Becton Dickinson).\nTwo cell lines, the colon cancer cell line LS174T and the breast cancer cell line Cama-1, were analyzed for death and cell cycle changes. Cells were cultured for 48 hours in either the presence or absence of Poly IC (5 μg/ml). Following a 30-minute pulse with 1 μg/ml bromodeoxyuridine (BrdU), the cells were fixed overnight at 4° C. in 70% ethanol before staining with FITC-coupled anti-BrdU monoclonal antibody and 3 μg/ml propidium iodide. Cell death and the cell cycle were analyzed by flow cytometry (FACS). BrdU incorporation is a measure of proliferation, whereas propidium iodide staining allows the quantification of DNA content, in particular the subdiploid cell population undergoing apoptosis.\nTLR3 was analyzed for its role in Poly IC induced apoptosis. Cama-1 cells were transfected with siRNA corresponding to either: an irrelevant sequence (Scr RNA; sequence: ACUAGUUCACGAGUCACCUtt) (SEQ ID NO: 21), or hTLR3 (sequence: CAGUGUUGAACCUUACCCAtt) (SEQ ID NO: 22). siRNA transfections were performed for 5 hours in 1 mL OptiMEM™ medium containing 3 μg/mL lipofectamine 2000 and 100 nM siRNA. Cells were then washed in phosphate buffered saline solution (PBS) and cultured for 72 hours in complete medium before subsequent 48 hour treatment with 5 μg/mL Poly IC. The cell cycle was then analyzed by FACS after staining with ethidium bromide, as described in Example 3."}
{"substance": "polyinosinic-polycytidylic acid [Poly IC]", "values": [{"measurement": "percentage of cells with subdiploid DNA content", "setting": "Cama-1, 48 h with 5 μg/ml Poly IC (4% before treatment)", "value": 17, "unit": "%"}, {"measurement": "percentage of cells that incorporated BrdU", "setting": "Cama-1, 48 h with 5 μg/ml Poly IC (15% before treatment)", "value": 2, "unit": "%"}, {"measurement": "percentage of subdiploid cells", "setting": "Cama-1 transfected with hTLR3 siRNA, 48 h with 5 μg/mL Poly IC", "value": 3, "unit": "%"}, {"measurement": "percentage of subdiploid cells", "setting": "Cama-1 transfected with scrambled RNA, 48 h with 5 μg/mL Poly IC (from 2%)", "value": 45, "unit": "%"}]}
